Test results from patent publication US9211261B2, “Immediate release dosage forms containing solid drug dispersions” (Bend Research, Inc., priority 2002, dated 2015).

Assay: In vitro dissolution test of Drug 1 from tablets (simulated intestinal buffer pH 6.8 with 0.5 wt % sodium lauryl sulfate)
Assay type: physicochemical
Settings: 120 mgA tablet of Example 2, 900 mL pH 6.8 buffer + 0.5 wt % SLS, 37° C., 100 rpm, average of two tests
Method: An in vitro test may be used to determine whether a dosage form provides a release profile within the scope of the present invention. In vitro tests are well known in the art. One example is a so-called “direct” test, where the dosage form is placed into a stirred USP type 2 dissoette flask containing 900 mL of a dissolution medium maintained at 37° C., such as a buffer solution simulating a gastric environment (10 mM HCl, 100 mM NaCl, pH 2.0, 261 mOsm/kg) or the PBS or MFD solutions previously described. One skilled in the art will understand that in such tests the dissolution medium should act as a sink for the drug in the dosage form. By “sink” is meant that the composition and volume of the dissolution medium is sufficient such that substantially all of the drug in the dosage form will dissolve into the dissolution medium within about 4 hours or less. In some cases a surfactant, such as sodium lauryl sulfate or other excipients may be added to the dissolution medium to ensure the dissolution medium acts as a sink for the drug. The dosage form is placed in a wire support to keep the dosage form off of the bottom of the flask, so that all of its surfaces are exposed to the dissolution medium, and the medium is stirred using paddles that rotate at a rate of 50 rpm. Samples of the dissolution medium are taken at periodic intervals using a VanKel VK8000 autosampling dissoette with automatic receptor solution replacement. The concentration of dissolved drug in the dissolution medium is then determined by High Performance Liquid Chromatography (HPLC), by comparing UV absorbance of samples to the absorbance of drug standards. The mass of dissolved drug in the dissolution medium is then calculated from the concentration of drug in the medium and the volume of the medium, which value is used to calculate the actual amount of drug released from the dosage form, taking into consideration the mass of drug originally present in the dosage form.
Drug 1 dissolution from the tablets of Example 2 was measured using an in vitro test. First, a dissolution medium consisting of a simulated intestinal buffer solution was made by dissolving 6.8 g of KH2PO4 in 750 mL of deionized water with 85 mL 0.2M NaOH. Water was added for a final volume of 1 L. The pH was adjusted to 6.8±0.1 using 0.2M NaOH. Next, 0.5 wt % sodium lauryl sulfate was added to the buffer. A 900 mL sample of this solution was added to each of two vessels in a VanKel dissolution testing apparatus with automatic sampling. The solution temperature was maintained at 37° C., and stirred with a paddle speed of 100 rpm. This dissolution medium acted as a sink for the 120 mgA tablets. After equilibration to 37° C., a tablet of Example 2 was added to each vessel containing the buffer solution, resulting in a Drug 1 concentration of 130 μgA/mL, assuming all of the drug had dissolved. Samples were collected at 5, 15, 20, 35, 45, 60, 75, 90, 120 and 180 minutes, and then analyzed by HPLC using a Waters Symmetry C8 column. The mobile phase consisted of 0.2 vol % H3PO4 (in water)/methanol in the ratio of 15/85 (vol/vol). Drug 1 concentration was calculated by comparing UV absorbance at 256 nm to the absorbance of Drug 1 standards.

Drug 1 Concentration (time 0 min): 0 μgA/mL
Drug 1 Released (time 0 min): 0 wt %
Drug 1 Concentration (time 5 min): 49 μgA/mL
Drug 1 Released (time 5 min): 37 wt %
Drug 1 Concentration (time 15 min): 114 μgA/mL
Drug 1 Released (time 15 min): 87 wt %
Drug 1 Concentration (time 20 min): 123 μgA/mL
Drug 1 Released (time 20 min): 94 wt %
Drug 1 Concentration (time 35 min): 126 μgA/mL
Drug 1 Released (time 35 min): 96 wt %
Drug 1 Concentration (time 45 min): 126 μgA/mL
Drug 1 Released (time 45 min): 96 wt %
Drug 1 Concentration (time 60 min): 125 μgA/mL
Drug 1 Released (time 60 min): 95 wt %
Drug 1 Concentration (time 75 min): 128 μgA/mL
Drug 1 Released (time 75 min): 98 wt %
Drug 1 Concentration (time 90 min): 127 μgA/mL
Drug 1 Released (time 90 min): 97 wt %
Drug 1 Concentration (time 120 min): 127 μgA/mL
Drug 1 Released (time 120 min): 97 wt %
Drug 1 Concentration (time 180 min): 131 μgA/mL
Drug 1 Released (time 180 min): 100 wt %
Compound: CCOC(=O)N1c2ccc(C(F)(F)F)cc2C(N(Cc2cc(C(F)(F)F)cc(C(F)(F)F)c2)C(=O)OC)CC1CC (stereo not shown) [Drug 1, 4-[(3,5-bis-trifluoromethyl-benzyl)-methoxycarbonyl-amino]-2-ethyl-6-trifluoromethyl-3,4-dihydro-2H-quinoline-1-carboxylic acid ethyl ester]
